Assay results from US11839613B2, “Pyrimidine derivatives as PGE2 receptor modulators” (IDORSIA PHARMACEUTICALS LTD, priority 2017, dated 2023).

How the values were obtained:
PTGER4 (EP4) = PTGER4 (EP4) (Homo sapiens (Human), UniProt P35408); test: cell-based
PTGER2 (EP2) = PTGER2 (EP2) (Homo sapiens (Human), UniProt P43116); test: hEP2 b-arrestin assay (PathHunter HEK 293 PTGER2 b-arrestin cells); assay type: cell-based; conditions: antagonistic activity, beta-arrestin assay; read-out: hEP2 b-arr IC50
Protocol: Plate is pre-incubated 15 minutes at 37° C. Then five microliters of PGE2 (final conc. 5 μM) are transferred into the assay plate. Plate is incubated 120 minutes at 37° C.
(each concentration is measured in duplicate)

PTGER2 (EP2), sequence (P43116 whole entry): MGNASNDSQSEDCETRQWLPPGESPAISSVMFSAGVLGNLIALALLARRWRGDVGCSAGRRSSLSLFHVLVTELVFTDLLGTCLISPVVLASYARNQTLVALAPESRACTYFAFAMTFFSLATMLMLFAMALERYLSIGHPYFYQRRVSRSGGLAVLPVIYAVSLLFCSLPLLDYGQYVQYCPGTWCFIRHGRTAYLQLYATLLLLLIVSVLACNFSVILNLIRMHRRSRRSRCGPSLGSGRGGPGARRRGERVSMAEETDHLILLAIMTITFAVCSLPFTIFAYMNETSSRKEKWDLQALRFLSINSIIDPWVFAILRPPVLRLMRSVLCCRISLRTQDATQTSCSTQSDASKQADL
PTGER4 (EP4), sequence (P35408 whole entry): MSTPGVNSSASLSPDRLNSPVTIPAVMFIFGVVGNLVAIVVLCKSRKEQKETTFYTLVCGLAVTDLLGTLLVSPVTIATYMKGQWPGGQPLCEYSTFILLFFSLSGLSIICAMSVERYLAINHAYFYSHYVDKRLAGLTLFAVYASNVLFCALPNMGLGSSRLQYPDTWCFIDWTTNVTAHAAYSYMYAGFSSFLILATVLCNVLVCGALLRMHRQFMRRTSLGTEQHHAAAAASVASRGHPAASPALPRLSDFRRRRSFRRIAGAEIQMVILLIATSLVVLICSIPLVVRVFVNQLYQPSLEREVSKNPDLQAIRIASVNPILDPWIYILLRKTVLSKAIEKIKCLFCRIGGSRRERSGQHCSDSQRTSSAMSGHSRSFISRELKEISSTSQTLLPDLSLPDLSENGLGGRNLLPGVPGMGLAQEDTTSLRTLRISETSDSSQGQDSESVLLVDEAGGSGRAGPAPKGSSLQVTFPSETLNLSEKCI

SMILES	IC50 (PTGER4 (EP4)) [µM]	IC50 (PTGER2 (EP2)) [µM]
CCOc1cc(-c2cc(NCCc3cc(F)c4sccc4c3)ncn2)ccc1C(=O)C(=O)O [Example 537, (2-Ethoxy-4-{6-[2-(7-fluoro-benzo[b]thiophen-5-yl)-ethylamino]-pyrimidin-4-yl}-phenyl)-oxo-acetic acid]	0.076	0.67
COC(=O)c1ccc(-c2cc(NCCc3cc(F)c4sccc4c3)ncn2)cc1OC1CC1 [Example 538, 2-Cyclopropoxy-4-{6-[2-(7-fluoro-benzo[b]thiophen-5-yl)-ethylamino]-pyrimidin-4-yl}-benzoic acid methyl ester]	0.099	0.685
Fc1cc(CCNc2cc(-c3ccc4[nH]ccc4c3)ncn2)cc2ccsc12 [Example 539, [2-(7-Fluoro-benzo[b]thiophen-5-yl)-ethyl]-[6-(1H-indol-5-yl)-pyrimidin-4-yl]amine]	0.225	0.452
O=C(O)Cc1ccc(-c2cc(NCCc3cc(F)c4sccc4c3)ncn2)cc1OC(F)F [Example 540, (2-Difluoromethoxy-4-{6-[2-(7-fluoro-benzo[b]thiophen-5-yl)-ethylamino]-pyrimidin-4-yl}-phenyl)-acetic acid]	0.146	0.339
CCc1cc(-c2cc(NCCc3cc(F)c4sccc4c3)ncn2)cc(Cl)c1CC(=O)O [Example 541, (2-Chloro-6-ethyl-4-{6-[2-(7-fluoro-benzo[b]thiophen-5-yl)-ethylamino]-pyrimidin-4-yl}-phenyl)-acetic acid]	0.088	0.604
CCc1cc(-c2cc(NCCc3cc(F)c4sccc4c3)ncn2)cc(C)c1CC(=O)O [Example 542, (2-Ethyl-4-{6-[2-(7-fluoro-benzo[b]thiophen-5-yl)-ethylamino]-pyrimidin-4-yl}-6-methyl-phenyl)-acetic acid]	0.091	0.609
O=c1nc(-c2ccc(-c3cc(NCCc4cc(F)c5sccc5c4)ncn3)cc2)o[nH]1 [Example 543, 5-(4-(6-((2-(7-fluorobenzo[b]thiophen-5-yl)ethyl)amino)pyrimidin-4-yl)phenyl)-[1,2,4]oxadiazol-3(2H)-one]	0.124	0.612
Cc1cc(-c2cc(NCCc3cc(F)c4sccc4c3)ncn2)ccc1CC(=O)O [Example 544, (4-{6-[2-(7-Fluoro-benzo[b]thiophen-5-yl)-ethylamino]-pyrimidin-4-yl}-2-methyl-phenyl)-acetic acid]	0.452	0.851
CCc1cc(-c2cc(NCCc3cc(F)c4sccc4c3)ncn2)sc1CC(=O)O [Example 545, (3-Ethyl-5-{6-[2-(7-fluoro-benzo[b]thiophen-5-yl)-ethylamino]-pyrimidin-4-yl}-thiophen-2-yl)-acetic acid]	0.025	0.394
Cc1cc(-c2cc(NCCc3cc(F)c4sccc4c3)ncn2)cc(Cl)c1CC(=O)O [Example 546, (2-Chloro-4-{6-[2-(7-fluoro-benzo[b]thiophen-5-yl)-ethylamino]-pyrimidin-4-yl}-6-methyl-phenyl)-acetic acid]	0.166	0.98
CCn1cc(-c2cc(NCCc3cc(F)c4sccc4c3)ncn2)cc1C(=O)O [Example 547, 1-Ethyl-4-{6-[2-(7-fluoro-benzo[b]thiophen-5-yl)-ethylamino]-pyrimidin-4-yl}-1H-pyrrole-2-carboxylic acid]	0.322	0.825
CCCn1cc(-c2cc(NCCc3cc(F)c4sccc4c3)ncn2)cc1C(=O)O [Example 548, 4-{6-[2-(7-Fluoro-benzo[b]thiophen-5-yl)-ethylamino]-pyrimidin-4-yl}-1-propyl-1H-pyrrole-2-carboxylic acid]	0.295	0.933
O=C(O)c1coc2cc(-c3cc(NCCc4cc(F)c5sccc5c4)ncn3)ccc12 [Example 549, 6-{6-[2-(7-Fluoro-benzo[b]thiophen-5-yl)-ethylamino]-pyrimidin-4-yl}-benzofuran-3-carboxylic acid]	0.19	0.56
CCOc1cc(-c2cc(NCCc3cc(F)c4sccc4c3)ncn2)ccc1-c1cc(O)no1 [Example 550, 5-(2-Ethoxy-4-{6-[2-(7-fluoro-benzo[b]thiophen-5-yl)-ethylamino]-pyrimidin-4-yl}-phenyl)-isoxazol-3-ol]	0.063	0.371
CCCc1cc(-c2cc(NCCc3cc(F)c4sccc4c3)ncn2)cc(OCC)c1C(=O)O [Example 551, 2-Ethoxy-4-{6-[2-(7-fluoro-benzo[b]thiophen-5-yl)-ethylamino]-pyrimidin-4-yl}-6-propyl-benzoic acid]	0.867	0.9
CCOc1c(C(=O)O)ccc(-c2cc(NCCc3cc(F)c4sccc4c3)ncn2)c1F [Example 552, 2-Ethoxy-3-fluoro-4-{6-[2-(7-fluoro-benzo[b]thiophen-5-yl)-ethylamino]-pyrimidin-4-yl}-benzoic acid]	0.385	0.577
COc1cc(-c2cc(NCCc3cc(F)c4sccc4c3)ncn2)ccc1-c1cc(O)no1 [Example 553, 5-(4-{6-[2-(7-Fluoro-benzo[b]thiophen-5-yl)-ethylamino]-pyrimidin-4-yl}-2-methoxy-phenyl)-isoxazol-3-ol]	0.08	0.302
O=C(O)c1ccc(-c2cc(NCCc3cc(F)c4sccc4c3)ncn2)cc1F [Example 554, 2-Fluoro-4-{6-[2-(7-fluoro-benzo[b]thiophen-5-yl)-ethylamino]-pyrimidin-4-yl}-benzoic acid]	0.884	0.739
Cc1cc(-c2cc(NCCc3cc(F)c4sccc4c3)ncn2)ccc1C(=O)O [Example 555, 4-{6-[2-(7-Fluoro-benzo[b]thiophen-5-yl)-ethylamino]-pyrimidin-4-yl}-2-methyl-benzoic acid]	0.835	0.887

Next, values leading:

IC50 (PTGER4 (EP4)) [µM]	IC50 (PTGER2 (EP2)) [µM]	SMILES
0.019	0.246	CCCc1cc(-c2cc(NCCc3cc(F)c4sccc4c3)ncn2)sc1CC(=O)O [Example 556, (5-{6-[2-(7-Fluoro-benzo[b]thiophen-5-yl)-ethylamino]-pyrimidin-4-yl}-3-propyl-thiophen-2-yl)-acetic acid]
0.117	0.994	CCCc1cc(-c2cc(NCCc3cc(F)c4sccc4c3)ncn2)ccc1C1(C(=O)O)CC1 [Example 557, 1-(4-{6-[2-(7-Fluoro-benzo[b]thiophen-5-yl)-ethylamino]-pyrimidin-4-yl}-2-propyl-phenyl)-cyclopropanecarboxylic acid]
0.539	0.684	O=C(O)c1ccc(-c2cc(NCCc3cc(F)c4sccc4c3)ncn2)c2cc[nH]c12 [Example 558, 4-{6-[2-(7-Fluoro-benzo[b]thiophen-5-yl)-ethylamino]-pyrimidin-4-yl}-1H-indole-7-carboxylic acid]
0.134	0.476	COc1cc(-c2cc(NCCc3cc(F)c4sccc4c3)ncn2)ccc1CCC(=O)O [Example 560, 3-(4-{6-[2-(7-Fluoro-benzo[b]thiophen-5-yl)-ethylamino]-pyrimidin-4-yl}-2-methoxy-phenyl)-propionic acid]
0.103	0.388	O=C(O)c1cccc2cc(-c3cc(NCCc4cc(F)c5sccc5c4)ncn3)[nH]c12 [Example 561, 2-{6-[2-(7-Fluoro-benzo[b]thiophen-5-yl)-ethylamino]-pyrimidin-4-yl}-1H-indole-7-carboxylic acid]
0.689	0.803	O=C(O)c1n[nH]c2cc(-c3cc(NCCc4cc(F)c5sccc5c4)ncn3)ccc12 [Example 562, 6-{6-[2-(7-Fluoro-benzo[b]thiophen-5-yl)-ethylamino]-pyrimidin-4-yl}-1H-indazole-3-carboxylic acid]
0.582	0.985	O=C(O)c1ccc(-c2cc(NCCc3cc(F)c4sccc4c3)ncn2)cc1O [Example 563, 4-{6-[2-(7-Fluoro-benzo[b]thiophen-5-yl)-ethylamino]-pyrimidin-4-yl}-2-hydroxy-benzoic acid]
0.212	0.817	CCOc1c(CC(=O)O)ccc(-c2cc(NCCc3cc(F)c4sccc4c3)ncn2)c1F [Example 564, (2-Ethoxy-3-fluoro-4-{6-[2-(7-fluoro-benzo[b]thiophen-5-yl)-ethylamino]-pyrimidin-4-yl}-phenyl)-acetic acid]
0.023	0.058	CCOc1cc(-c2cc(NCCc3ccc4ccccc4c3C)ncn2)ccc1-c1noc(=S)[nH]1 [Example 565, 3-(2-Ethoxy-4-{6-[2-(1-methyl-naphthalen-2-yl)-ethylamino]-pyrimidin-4-yl}-phenyl)-[1,2,4]oxadiazole-5(4H)-thione]
0.159	0.297	CCOc1cc(-c2cc(NCCc3ccc4ccccc4c3C)ncn2)ccc1Cc1noc(=O)[nH]1 [Example 566, 3-(2-Ethoxy-4-{6-[2-(1-methyl-naphthalen-2-yl)-ethylamino]-pyrimidin-4-yl}-benzyl)-[1,2,4]oxadiazol-5(4H)-one]
0.264	0.255	CCOc1cc(-c2cc(NCCc3ccc4ccccc4c3C)ncn2)ccc1Cc1noc(=S)[nH]1 [Example 567, 3-(2-Ethoxy-4-{6-[2-(1-methyl-naphthalen-2-yl)-ethylamino]-pyrimidin-4-yl}-benzyl)-[1,2,4]oxadiazole-5(4H)-thione]
